The values below come from US9273040B2 (Merck Sharp & Dohme Corp., priority 2011, dated 2016).

SMILES strings stand for the structures.

Experiment [1] concerns the target T1, human Nav1.5 channels stably expressed in HEK 293 cells (Homo sapiens, UniProt Q14524).
T1 construct: expressed in transfected cells
As to the kind of experiment: PatchXpress 7000 automated patch-clamp, sodium current. Conditions: selectivity over Nav1.5. The experiment is classed as cell-based. The source says: (§1) To measure state and use-dependent sodium channel inhibition, test compounds were further characterized in an automated PatchXpress® assay (Molecular Devices). Two voltage-clamp protocols were used. 1) Use-dependent protocol: Cells were held at a membrane potential 20 mV negative to the potential at which ˜50% of the channels are inactivated (V0.5 inact). A train of 30 ms depolarizations to −20 mV was applied to the cells expressing Nav1.7 at a frequency of 10 Hz. […] Data was collected in the absence and presence of drug, and after drug washout. 2) A double-pulse protocol was used to measure inactivated state block. Cells were held at a potential 20 mV negative to V0.5 inact. A 8000 ms pre-pulse 7 mV positive to V0.5 inact was given followed by a hyperpolarizing 2 ms pulse to −120 mV and a 20 ms test pulse to −20 mV. Protocol was applied to cells in the absence, presence of compound and after washout. The temperature of PatchXpress instruments was maintained at 22° C. The following recording solutions were used. Internal solution (mM): 30 CsCl, 5 HEPES, 10 EGTA, 120 CsF, 5 NaF, 2MgCl2, pH=7.3 with CsOH, 324 mosmo. External solution (mM): 120 NMDG, 40 NaCl, 1 KCl, 0.5 MgCl2, 5 HEPES, 2.7 CaCl2, pH=7.5 with NMDG-OH.
(§2) For all electrophysiology experiments, offline analysis was used to correct for current rundown and to determine percent inhibition as a function of drug concentration. IC50 values were determined by fitting to the Hill equation.

The target of experiment [2] is T2, human Nav1.7 channels stably expressed in HEK 293 cells (Homo sapiens, UniProt Q15858).
T2 construct: expressed in transfected cells
T2 sequence (Q15858 whole entry): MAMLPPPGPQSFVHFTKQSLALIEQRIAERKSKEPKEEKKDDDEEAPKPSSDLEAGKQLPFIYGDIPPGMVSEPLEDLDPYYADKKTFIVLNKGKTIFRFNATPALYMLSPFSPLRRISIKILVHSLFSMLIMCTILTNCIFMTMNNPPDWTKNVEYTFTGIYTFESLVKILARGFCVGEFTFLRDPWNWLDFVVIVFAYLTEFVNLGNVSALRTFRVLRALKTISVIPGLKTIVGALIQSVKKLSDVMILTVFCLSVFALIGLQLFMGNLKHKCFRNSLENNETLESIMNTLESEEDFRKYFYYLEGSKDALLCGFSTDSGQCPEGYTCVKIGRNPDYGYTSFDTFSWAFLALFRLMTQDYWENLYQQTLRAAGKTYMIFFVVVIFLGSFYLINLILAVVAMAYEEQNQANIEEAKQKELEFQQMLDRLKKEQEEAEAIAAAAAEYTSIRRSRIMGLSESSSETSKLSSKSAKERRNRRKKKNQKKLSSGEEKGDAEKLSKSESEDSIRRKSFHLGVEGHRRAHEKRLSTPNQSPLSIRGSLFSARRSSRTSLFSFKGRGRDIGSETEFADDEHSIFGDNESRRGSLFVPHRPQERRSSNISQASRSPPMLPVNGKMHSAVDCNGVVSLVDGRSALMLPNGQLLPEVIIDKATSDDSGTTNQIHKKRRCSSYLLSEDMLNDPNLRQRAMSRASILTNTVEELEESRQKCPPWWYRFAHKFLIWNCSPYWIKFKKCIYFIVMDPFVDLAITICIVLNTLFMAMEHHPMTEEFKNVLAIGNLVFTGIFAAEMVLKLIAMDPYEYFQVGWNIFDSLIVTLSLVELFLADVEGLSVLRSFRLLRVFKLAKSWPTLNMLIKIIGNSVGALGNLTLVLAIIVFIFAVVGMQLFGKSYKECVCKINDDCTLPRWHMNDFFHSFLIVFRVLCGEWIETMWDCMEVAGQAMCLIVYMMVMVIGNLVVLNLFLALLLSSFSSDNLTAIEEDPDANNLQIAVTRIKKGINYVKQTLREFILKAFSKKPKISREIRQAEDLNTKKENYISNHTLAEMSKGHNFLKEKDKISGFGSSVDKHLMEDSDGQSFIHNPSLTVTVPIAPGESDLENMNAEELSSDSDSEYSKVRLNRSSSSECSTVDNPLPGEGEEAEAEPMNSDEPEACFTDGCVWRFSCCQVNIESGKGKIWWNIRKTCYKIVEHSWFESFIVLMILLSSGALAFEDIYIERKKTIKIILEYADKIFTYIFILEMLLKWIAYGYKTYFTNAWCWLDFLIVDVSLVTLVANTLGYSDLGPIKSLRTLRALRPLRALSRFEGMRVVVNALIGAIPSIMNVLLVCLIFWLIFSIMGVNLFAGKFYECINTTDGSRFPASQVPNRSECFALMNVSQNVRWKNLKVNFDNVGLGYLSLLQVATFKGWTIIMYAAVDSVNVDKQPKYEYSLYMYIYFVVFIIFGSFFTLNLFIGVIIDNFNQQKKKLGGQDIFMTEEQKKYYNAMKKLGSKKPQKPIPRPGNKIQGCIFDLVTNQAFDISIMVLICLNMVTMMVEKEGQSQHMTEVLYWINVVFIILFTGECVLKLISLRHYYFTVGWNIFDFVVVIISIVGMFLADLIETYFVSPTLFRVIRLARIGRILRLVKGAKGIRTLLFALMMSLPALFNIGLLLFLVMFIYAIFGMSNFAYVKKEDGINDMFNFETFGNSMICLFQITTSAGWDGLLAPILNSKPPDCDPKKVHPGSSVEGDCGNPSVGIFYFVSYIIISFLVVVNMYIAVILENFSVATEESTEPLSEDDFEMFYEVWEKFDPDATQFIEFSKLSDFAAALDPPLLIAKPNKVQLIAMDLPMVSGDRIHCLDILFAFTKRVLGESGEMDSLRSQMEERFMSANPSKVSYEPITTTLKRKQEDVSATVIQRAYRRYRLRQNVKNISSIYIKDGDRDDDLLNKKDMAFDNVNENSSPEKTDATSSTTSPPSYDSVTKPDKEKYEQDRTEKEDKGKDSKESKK
The description is as above. The experiment is classed as cell-based. Conditions: 22° C., read-out: potency for the Nav 1.7 sodium ion channel (as measured by PatchXpress).
Excerpt: as §1, §2

T1 sequence (Q14524 whole entry): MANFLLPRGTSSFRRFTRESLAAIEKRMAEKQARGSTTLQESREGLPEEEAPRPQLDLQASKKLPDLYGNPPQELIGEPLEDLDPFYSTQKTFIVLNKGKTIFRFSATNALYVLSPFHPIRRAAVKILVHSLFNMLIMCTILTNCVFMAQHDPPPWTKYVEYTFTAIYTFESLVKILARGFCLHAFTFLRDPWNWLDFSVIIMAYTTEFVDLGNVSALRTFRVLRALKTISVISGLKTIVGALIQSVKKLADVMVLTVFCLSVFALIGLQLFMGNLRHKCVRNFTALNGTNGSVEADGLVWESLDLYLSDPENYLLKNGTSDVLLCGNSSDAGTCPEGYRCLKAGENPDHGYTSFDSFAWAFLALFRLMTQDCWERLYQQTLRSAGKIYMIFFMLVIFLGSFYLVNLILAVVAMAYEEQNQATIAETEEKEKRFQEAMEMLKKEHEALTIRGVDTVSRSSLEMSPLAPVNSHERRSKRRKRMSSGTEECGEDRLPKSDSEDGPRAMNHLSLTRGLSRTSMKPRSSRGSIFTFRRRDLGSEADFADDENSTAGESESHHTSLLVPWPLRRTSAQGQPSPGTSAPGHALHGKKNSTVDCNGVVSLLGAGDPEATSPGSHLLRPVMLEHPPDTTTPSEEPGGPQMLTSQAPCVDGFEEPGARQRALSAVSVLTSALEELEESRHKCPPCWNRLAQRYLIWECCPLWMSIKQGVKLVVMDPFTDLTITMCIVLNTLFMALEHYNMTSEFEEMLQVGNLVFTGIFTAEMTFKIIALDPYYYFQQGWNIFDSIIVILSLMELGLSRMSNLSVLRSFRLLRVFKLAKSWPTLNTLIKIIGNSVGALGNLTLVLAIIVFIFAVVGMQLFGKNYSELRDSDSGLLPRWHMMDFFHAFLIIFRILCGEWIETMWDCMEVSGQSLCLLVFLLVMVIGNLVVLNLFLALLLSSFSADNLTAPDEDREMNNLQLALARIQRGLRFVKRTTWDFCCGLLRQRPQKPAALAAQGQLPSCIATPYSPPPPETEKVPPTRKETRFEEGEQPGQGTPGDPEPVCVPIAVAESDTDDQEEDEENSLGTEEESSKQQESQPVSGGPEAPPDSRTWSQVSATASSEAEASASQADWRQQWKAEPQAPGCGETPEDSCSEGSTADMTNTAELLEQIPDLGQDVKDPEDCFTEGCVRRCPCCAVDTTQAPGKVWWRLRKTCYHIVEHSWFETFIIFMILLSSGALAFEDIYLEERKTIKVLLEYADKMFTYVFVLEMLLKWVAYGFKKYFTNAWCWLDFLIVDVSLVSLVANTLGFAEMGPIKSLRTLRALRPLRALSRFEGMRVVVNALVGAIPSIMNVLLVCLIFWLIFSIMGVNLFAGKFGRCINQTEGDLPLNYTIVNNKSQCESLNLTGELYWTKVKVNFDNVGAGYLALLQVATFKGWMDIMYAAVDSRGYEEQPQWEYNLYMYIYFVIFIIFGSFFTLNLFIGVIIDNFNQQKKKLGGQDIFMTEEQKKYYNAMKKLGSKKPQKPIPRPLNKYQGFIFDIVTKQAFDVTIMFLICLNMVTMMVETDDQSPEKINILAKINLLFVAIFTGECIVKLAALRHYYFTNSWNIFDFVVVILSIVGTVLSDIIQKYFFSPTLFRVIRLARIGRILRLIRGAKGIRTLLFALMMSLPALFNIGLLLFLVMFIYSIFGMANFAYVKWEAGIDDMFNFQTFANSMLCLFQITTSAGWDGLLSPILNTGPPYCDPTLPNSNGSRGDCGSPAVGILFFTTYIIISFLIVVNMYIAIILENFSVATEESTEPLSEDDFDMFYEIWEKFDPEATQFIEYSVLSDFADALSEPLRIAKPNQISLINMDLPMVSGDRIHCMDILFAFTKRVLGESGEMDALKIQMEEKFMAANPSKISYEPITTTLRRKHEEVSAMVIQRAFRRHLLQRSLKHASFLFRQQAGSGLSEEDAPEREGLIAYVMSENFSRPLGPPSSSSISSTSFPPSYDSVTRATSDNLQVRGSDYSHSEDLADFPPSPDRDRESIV

In the case of `NC1CCc2cccc(Cn3c(=O)oc4cc(S(=O)(=O)Nc5ncns5)c(F)cc43)c2C1` (racemic) [Compound 20-4, 3-((7-amino-5,6,7,8-tetrahydronaphthalen-1-yl)methyl)-5-fluoro-2-oxo-N-(1,2,4-thiadiazol-5-yl)-2,3-dihydrobenzo[d]oxazole-6-sulfonamide], in experiment [1], the “ratio of Nav 1.5:Nav 1.7 potency, determined by PatchXpress measurement” value (shortened to “ratio of Nav 1.5:Nav 1.7 potency”) was 167. In experiment [2], the IC50 is 179 nM.
In the same order, the values of `NC1CCc2c(cccc2Cn2c(=O)oc3cc(S(=O)(=O)Nc4ncns4)ccc32)C1` (racemic) [Compound 23-3, (+/−)-3-[(6-amino-5,6,7,8-tetrahydronaphthalen-1-yl)methyl]-2-oxo-N-1,2,4-thiadiazol-5-yl-2,3-dihydro-1,3-benzoxazole-6-sulfonamide] are 88 and 342 nM.
In the case of `O=c1oc2cc(S(=O)(=O)Nc3ncns3)c(F)cc2n1Cc1cccc2c1CC(N1CCC(F)(F)C1)CC2` (racemic) [Compound 23-5, (+/−)-3-{[7-(3,3-difluoropyrrolidin-1-yl)-5,6,7,8-tetrahydronaphthalen-1-yl]methyl}-5-fluoro-2-oxo-N-1,2,4-thiadiazol-5-yl-2,3-dihydro-1,3-benzoxazole-6-sulfonamide], in experiment [1], the “ratio of Nav 1.5:Nav 1.7 potency” value worked out at 78. Also, the IC50 in experiment [2] was found to be 278 nM.
In the same order, the values of `O=c1oc2cc(S(=O)(=O)Nc3ncns3)c(F)cc2n1Cc1cccc2c1CC(NCC(F)(F)F)CC2` (racemic) [Compound 23-7, (+/−)-5-fluoro-2-oxo-N-1,2,4-thiadiazol-5-yl-3-({7-[(2,2,2-trifluoroethyl)amino]-5,6,7,8-tetrahydronaphthalen-1-yl}methyl)-2,3-dihydro-1,3-benzoxazole-6-sulfonamide] are 146 and 206 nM.
With `NC1CCc2c(cccc2Cn2c(=O)oc3cc(S(=O)(=O)Nc4ncns4)c(F)cc32)C1` (racemic) [Compound 23-8, (+/−)-3-[(6-amino-5,6,7,8-tetrahydronaphthalen-1-yl)methyl]-5-fluoro-2-oxo-N-1,2,4-thiadiazol-5-yl-2,3-dihydro-1,3-benzoxazole-6-sulfonamide], the “ratio of Nav 1.5:Nav 1.7 potency” value in experiment [1] is recorded as 161. Further, in experiment [2], the IC50 was 186 nM.
With `NC1Cc2cccc(Cn3c(=O)oc4cc(S(=O)(=O)Nc5ncns5)ccc43)c2C1` (racemic) [Compound 23-9, (+/−)-3-[(2-amino-2,3-dihydro-1H-inden-4-yl)methyl]-2-oxo-N-1,2,4-thiadiazol-5-yl-2,3-dihydro-1,3-benzoxazole-6-sulfonamide], the “ratio of Nav 1.5:Nav 1.7 potency” value in experiment [1] is 167. In addition, the IC50 in experiment [2] was found to be 180 nM.
In the same order, the values of `O=c1oc2cc(S(=O)(=O)Nc3ncns3)c(F)cc2n1Cc1cccc2c1CC(N1CCCC1C(F)(F)F)CC2` (racemic) [Compound 23-11, (+/−)-5-fluoro-2-oxo-N-1,2,4-thiadiazol-5-yl-3-({7-[2-(trifluoromethyl)pyrrolidin-1-yl]-5,6,7,8-tetrahydronaphthalen-1-yl}methyl)-2,3-dihydro-1,3-benzoxazole-6-sulfonamide] are 73 and 115 nM.
In the same order, the values of `CC(c1cccc2c1CC(N1CC(F)(F)C1)CC2)n1c(=O)oc2cc(S(=O)(=O)Nc3ncns3)c(F)cc21` (racemic) [Compound 23-12, (+/−)-3-{1-[7-(3,3-difluoroazetidin-1-yl)-5,6,7,8-tetrahydronaphthalen-1-yl]ethyl}-5-fluoro-2-oxo-N-1,2,4-thiadiazol-5-yl-2,3-dihydro-1,3-benzoxazole-6-sulfonamide] are 46 and 109 nM.
